According to patent EP0422215B1, “ANTIBACTERIAL AND AN[…]” (THE ROCKEFELLER UNIVERSITY, priority 1989, dated 1990):
Where no end group is shown, it is not given here.

Assays:
Format in all cases: cell-based
B. subtilis Bsll = conditions: overnight incubation at 30°C; for LETHAL CONCENTRATION Bsll + ME: B. subtilis, plates prepared with medium E; for LETHAL CONCENTRATION Bsll: Bsll = B. subtilis, thin agarose plates
Description: (§1) The products of the invention were tested for activity against a variety of test organisms selected to represent a number of different types of pathogens some of them known to be particularly virulent by the inhibition zone assay of Hoffmann et al. (1981) Insect Biochem. 11 537-548. Thin agar or agarose plates (8.5 cm diameter) were prepared with 6 ml of rich medium containing 100 µg/ml of streptomycin and 2 x 10^5 viable cells of a test organism resistant to streptomycin. Wells of […] were punched in the plates and 3 µl of serially diluted samples were placed in the wells. The diameters of the zones of inhibition around the wells were measured after overnight incubation at 30° or 37°C. For each peptide the squares of the zone diameters were plotted against the logarithm of the concentration, and from the slopes and intercepts the lethal concentrations were calculated as described by Hultmark (1983) EMBO J. 2, 571-76 or Hultmark et al. (1982) Eur. J. Biochem. 127 207-217.
(§2) Novel peptides CA(1-8)M(1-18), CA(1-9)M(1-17), CB(1-13)M(1-13), CA(1-17)M(1-9), CA(1-18)M(1-8), M(1-13)CA(1-22) and M(1-13)CA(1-13) were prepared as described above (see Examples 1-6). These novel peptides and CA, CB, and M were tested for activity against a variety of organisms selected to represent a number of different types of pathogens, some of them known to be particularly virulent, by the inhibition zone assay of Hoffmann et al. (1981), Insect Biochem. 11 537-48. As in Examples 1-6, thin agarose plates were prepared with the respective organisms. The diameters of the zones of inhibition were measured after overnight incubation at 30°C. The lethal concentrations were determined as described above (see Examples 1-6; Hultmark et al. articles cited thereat).

E. coli D21 = conditions: thin agarose plates, overnight incubation at 30°C
Description: as §1, §2

P. aeruginosa OT97 = conditions: thin agarose plates, overnight incubation at 30°C
Description: as §1, §2

S. aureus Cowan I = conditions: thin agarose plates, 30°C, * indicates flat concentration dependence
Description: as §1, §2

S. pyogenes = conditions: thin agarose plates, overnight incubation at 30°C
Description: as §1, §2

Sheep Red Cells = test: lysis of sheep red blood cells (lysis assay or inhibition zone plate assay with SRC); conditions: SRC = Sheep Red Cells; ? indicates turbid zone (melittin gives clear zone)
Description: These values were obtained by either the lysis assay normally used for melittin or by an adaptation of the antibacterial inhibition zone assay of the above-cited Hultmark et al. articles to plates with sheep red cells (SRC). With respect to the latter, sterile agarose plates contained 6 ml of medium with 1% agarose, 0.9% NaCl and 10% SRC suspended in Alsevers solution. A dilution series of peptide was applied in 3mm wells each loaded with 3 µl of the respective samples. The plates were incubated at 30°C for 24 h, the zones were recorded and LC values calculated as described in the Hultmark et al. articles. Clear zones were recorded after a few hours of incubation and the use of such data gave an LC value of the same order as readings after 24 h. This plate assay is faster and more convenient than the lysis assay normally used for melittin.

[1] = system: Plasmodium falciparum strain F32 (Tanzania); test: inhibition of reinvasion of human red cells by blood stream forms of the malaria parasite; conditions: result in words, read from Figure 1
Description: The blood stream forms of the malaria parasite Plasmodium falciparum, primarily late trophozoites and early schizonts, were assayed by recording the inhibition of the reinvasion of human red cells by the method of Wahlin, B., et al, (1984) Proc. Natl. Acad. Sci. USA 81, 7912-16. Quadruplicate microcultures of strain F32 (Tanzania) were incubated for 20 hrs at 37°C in a complete tissue culture medium, with or without different concentrations of the peptides to be assayed. After acridine orange staining, the percentage of newly infected red cells was scored in a fluorescence microscope. For each culture 40,000 red cells were analysed for parasitic infection. Duplicate assays were run for CA(1-13)M(1-13).

Row | Molecule | LETHAL CONCENTRATION Bsll + ME (B. subtilis Bsll) [µM] | LETHAL CONCENTRATION Bsll (B. subtilis Bsll) [µM] | LETHAL CONCENTRATION D21 (E. coli D21) [µM] | LETHAL CONCENTRATION OT97 (P. aeruginosa OT97) [µM] | LETHAL CONCENTRATION Staph (S. aureus Cowan I) | LETHAL CONCENTRATION Strep (S. pyogenes) [µM] | LETHAL CONCENTRATION SRC (Sheep Red Cells) | activity against Plasmodium falciparum (inhibition of reinvasion, Figure 1) [1]
1 | CC[C@H](C)[C@H](NC(=O)CNC(=O)[C@@H](NC(=O)[C@H](CCCCN)NC(=O)[C@H](CCCCN)NC(=O)[C@H](Cc1ccccc1)NC(=O)[C@H](CC(C)C)NC(=O)[C@H](CCCCN)NC(=O)[C@H](Cc1c[nH]c2ccccc12)NC(=O)[C@@H](N)CCCCN)[C@@H](C)CC)C(=O)NCC(=O)N[C@@H](C)C(=O)N[C@H](C(=O)N[C@@H](CC(C)C)C(=O)N[C@@H](CCCCN)C(=O)N[C@H](C(=O)N[C@@H](CC(C)C)C(=O)N[C@H](C(=O)N[C@H](C(=O)NCC(=O)N[C@@H](CC(C)C)C(=O)N1CCC[C@H]1C(=O)N[C@@H](C)C(=O)N[C@@H](CC(C)C)C(=O)N[C@H](C(=O)N[C@@H](CO)C(N)=O)[C@@H](C)CC)[C@@H](C)O)[C@@H](C)O)C(C)C)C(C)C [CA(1-8)M(1-18)] | 0.5 | 0.4 | 0.3 | 0.7 | 1 µM | 2 | >600 µM | –
2 | CC[C@H](C)[C@H](NC(=O)[C@H](CC(C)C)NC(=O)[C@H](C)NC(=O)[C@@H]1CCCN1C(=O)[C@H](CC(C)C)NC(=O)CNC(=O)[C@@H](NC(=O)[C@@H](NC(=O)[C@H](CC(C)C)NC(=O)[C@@H](NC(=O)[C@H](CCCCN)NC(=O)[C@H](CC(C)C)NC(=O)[C@@H](NC(=O)[C@H](C)NC(=O)CNC(=O)[C@@H](NC(=O)CNC(=O)[C@H](CCC(=O)O)NC(=O)[C@@H](NC(=O)[C@H](CCCCN)NC(=O)[C@H](CCCCN)NC(=O)[C@H](Cc1ccccc1)NC(=O)[C@H](CC(C)C)NC(=O)[C@H](CCCCN)NC(=O)[C@H](Cc1c[nH]c2ccccc12)NC(=O)[C@@H](N)CCCCN)[C@@H](C)CC)[C@@H](C)CC)C(C)C)C(C)C)[C@@H](C)O)[C@@H](C)O)C(N)=O [CA(1-9)M(1-17)] | 0.9 | 0.7 | 0.3 | 1 | 6 µM | 0.3 | >600 µM | –
3 | CC[C@H](C)[C@H](NC(=O)CNC(=O)[C@H](CCCNC(=N)N)NC(=O)CNC(=O)[C@H](CCSC)NC(=O)[C@H](CCCCN)NC(=O)[C@H](CCC(=O)O)NC(=O)[C@@H](NC(=O)[C@H](CCCCN)NC(=O)[C@H](CCCCN)NC(=O)[C@H](Cc1ccccc1)NC(=O)[C@@H](NC(=O)[C@H](CCCCN)NC(=O)[C@H](Cc1c[nH]c2ccccc12)NC(=O)[C@@H](N)CCCCN)C(C)C)[C@@H](C)CC)C(=O)NCC(=O)N[C@@H](C)C(=O)N[C@H](C(=O)N[C@@H](CC(C)C)C(=O)N[C@@H](CCCCN)C(=O)N[C@H](C(=O)N[C@@H](CC(C)C)C(=O)N[C@H](C(=O)N[C@H](C(=O)NCC(=O)N[C@@H](CC(C)C)C(N)=O)[C@@H](C)O)[C@@H](C)O)C(C)C)C(C)C [CB(1-13)M(1-13)] | 0.4 | 0.4 | 0.3 | 1 | 4 µM | 1 | >400 µM | –
4 | CC[C@H](C)[C@H](NC(=O)CN)C(=O)NCC(=O)N[C@@H](C)C(=O)N[C@H](C(=O)N[C@@H](CC(C)C)C(=O)N[C@@H](CCCCN)C(=O)N[C@H](C(=O)N[C@@H](CC(C)C)C(=O)N[C@H](C(=O)N[C@H](C(=O)NCC(=O)N[C@@H](CC(C)C)C(=O)N[C@@H](CCCCN)C(=O)N[C@@H](Cc1c[nH]c2ccccc12)C(=O)N[C@@H](CCCCN)C(=O)N[C@@H](CC(C)C)C(=O)N[C@@H](Cc1ccccc1)C(=O)N[C@@H](CCCCN)C(=O)N[C@@H](CCCCN)C(=O)N[C@H](C(=O)N[C@@H](CCC(=O)O)C(=O)N[C@@H](CCCCN)C(=O)N[C@H](C(=O)NCC(=O)N[C@@H](CCC(N)=O)C(N)=O)C(C)C)[C@@H](C)CC)[C@@H](C)O)[C@@H](C)O)C(C)C)C(C)C [M(1-13)CA(1-13)] | 0.1 | 0.3 | 1 | 5 | 5* µM | 1 | 80? µM | –
5 | CC[C@H](C)[C@H](NC(=O)CN)C(=O)NCC(=O)N[C@@H](C)C(=O)N[C@H](C(=O)N[C@@H](CC(C)C)C(=O)N[C@@H](CCCCN)C(=O)N[C@H](C(=O)N[C@@H](CC(C)C)C(=O)N[C@H](C(=O)N[C@H](C(=O)NCC(=O)N[C@@H](CC(C)C)C(=O)N[C@@H](CCCCN)C(=O)N[C@@H](Cc1c[nH]c2ccccc12)C(=O)N[C@@H](CCCCN)C(=O)N[C@@H](CC(C)C)C(=O)N[C@@H](Cc1ccccc1)C(=O)N[C@@H](CCCCN)C(=O)N[C@@H](CCCCN)C(=O)N[C@H](C(=O)N[C@@H](CCC(=O)O)C(=O)N[C@@H](CCCCN)C(=O)N[C@H](C(=O)NCC(=O)N[C@@H](CCC(N)=O)C(=O)N[C@@H](CC(N)=O)C(=O)N[C@H](C(=O)N[C@@H](CCCNC(=N)N)C(=O)N[C@@H](CC(=O)O)C(=O)NCC(=O)N[C@H](C(=O)N[C@H](C(=O)N[C@@H](CCCCN)C(=O)N[C@@H](C)C(N)=O)[C@@H](C)CC)[C@@H](C)CC)[C@@H](C)CC)C(C)C)[C@@H](C)CC)[C@@H](C)O)[C@@H](C)O)C(C)C)C(C)C [M(1-13)CA(1-22)] | 0.2 | – | 0.7 | – | 5* µM | 1 | 40? µM | –
6 | CC[C@H](C)[C@H](NC(=O)CN)C(=O)NCC(=O)N[C@@H](C)C(=O)N[C@H](C(=O)N[C@@H](CC(C)C)C(=O)N[C@@H](CCCCN)C(=O)N[C@H](C(=O)N[C@@H](CC(C)C)C(=O)N[C@H](C(=O)N[C@H](C(=O)NCC(=O)N[C@@H](CC(C)C)C(=O)N1CCC[C@H]1C(=O)N[C@@H](C)C(=O)N[C@@H](CC(C)C)C(=O)N[C@H](C(=O)N[C@@H](CO)C(=O)N[C@@H](Cc1c[nH]c2ccccc12)C(=O)N[C@H](C(=O)N[C@@H](CCCCN)C(=O)N[C@@H](CCCNC(=N)N)C(=O)N[C@@H](CCCCN)C(=O)N[C@@H](CCCNC(=N)N)C(=O)N[C@@H](CCC(N)=O)C(=O)N[C@@H](CCC(N)=O)C(N)=O)[C@@H](C)CC)[C@@H](C)CC)[C@@H](C)O)[C@@H](C)O)C(C)C)C(C)C [M(1-26), reference compound] | 0.3 | 0.2 | 0.8 | 3 | 0.2 µM | 0.5 | 4 to 8 µM | –
7 | H-KWKVFKKIEKMGRNIRNGIVKAGPAIAVLGEAKAL-NH2 [CB(1-35), reference compound] | – | – | 0.3 | 1 | >200 µM | 12 | – | about as potent as Mag
8 | KWKLFKKIEKVGQNIRDGGIGAVLKV-NH2 [CA(1-18)M(1-8)] | 20 | 4 | 1 | 15 | >600 µM | 3 | >600 µM | –
9 | KWKLFKKIEKVGQNIRDGIGAVLKVL-NH2 [CA(1-17)M(1-9)] | 1 | 0.5 | 0.5 | 5 | 4 µM | 0.2 | >600 µM | –
